Laboratory results reported in PMC9586938, “Picomolar fluorescent probes for compound affinity determination to carbonic anhydrase IX expressed in live cancer cells” (Scientific Reports, 2022).

Experiments:
[1] = molecular target: T1, CAIX expressed on HeLa cells (Homo sapiens, UniProt Q16790); assay: Fluorescein-labeled compound dosing to hypoxia-grown WT HeLa cells (Morrison single-site model); type: cell-based; conditions: same conditions as GZ19-32, up to about 100 nM
T1 construct: recombinant CAIX and endogenous CAIX expressed on the cell surface; endogenous in cells; host or cells: HeLa (WT), grown under hypoxia (1% O2)
Method: (§1) HeLa cell culture was grown in 12-well plates, either under hypoxia (1% O2) or under normoxia (21% O2), for 70 to 76 h. The medium was removed. Then 200 µL of serially diluted compound (twelve twofold steps) in the FB medium, usually starting at 80 nM (80, 40, 20, …, 0 nM), was added and incubated at 37 ℃ under normoxia in the CO2 incubator for 20 min (2 or 5 min in some experiments where specified). Then the compound solution was removed and the cells were washed 3 times for 1.5–2 min with 400 µL of PBS at RT. Then 180 µL of TrypLe express enzyme (ThermoFisher) was added to each well and incubated in CO2 incubator for 5 min to 10 min until the cells deattached from the surface. After addition of 20 µL of Defined Trypsin Inhibitor solution (ThermoFisher), cells were resuspended by pipetting and 150 µL of the suspension from each well were transferred to black Thermo Scientific™ Nunc MicroWell 96-Well Optical-Bottom Plates for fluorescence and absorbance measurements. The fluorescence was recorded at 485 nm excitation and 520 nm emission wavelengths in the plate reader (Synergy HTX, BioTek). The absorbance was recorded at 650 nm to measure the optical density of the cell suspension.
(§2) The compound solution was prepared by weighing 3–5 mg of a purified compound and dissolving in DMSO at 10 mM concentration. The 1 mM compound stock in DMSO was prepared by taking 10 µL of 10 mM stock and adding to 90 µL DMSO. The 10 µM compound stock was prepared by taking 10 µL of 1 mM compound stock in DMSO and adding 990 µL of the FB medium (this stock contained 1% of DMSO). Then 80 nM compound solution was prepared by taking 10 µL of 10 µM solution and adding 1.24 mL of the FB medium and placed to the first Eppendorf tube. Then 300 µL of FB medium were added to the Eppendorf tubes 2 to 12. A serial dilution was performed by taking 300 µL of solution from tube 1 to 2, then from 2 to 3 and so on while mixing vigorously at each step. No solution was transferred to the last tube thus it contained only FB medium and no compound. Then 200 µL from 12 tubes were transferred to the 12 wells of cell culture-containing 12-well plate, starting from the lowest concentration.
Application of fluorescently labeled ligand GZ19-32 to cancer cells expressing CAIX will stain the cells in dose-dependent manner. The fraction of saturation increases from 0 to 1. The fraction of bound GZ19-32 (f) is equal to the molar concentration of bound GZ19-32 per molar concentration of total available CAIX, the so-called total protein Pt . f=GZ19-32bound/Pt
Upon GZ19-32 dosing, the observed fluorescence signal F can be modeled to change from the minimal background signal ( Fmin ) to maximal saturated value ( Fmax ): F=Fmin+Fmax-Fminf […]

[2] = molecular target: T2, CAI (Homo sapiens, UniProt P00915); assay: Thermal shift assay (TSA), recombinant CAI; type: binding; conditions: 37 °C, pH 7.0, observed (not intrinsic)
T2 construct: made in house; host or cells: E. coli
T2 sequence (P00915 whole entry): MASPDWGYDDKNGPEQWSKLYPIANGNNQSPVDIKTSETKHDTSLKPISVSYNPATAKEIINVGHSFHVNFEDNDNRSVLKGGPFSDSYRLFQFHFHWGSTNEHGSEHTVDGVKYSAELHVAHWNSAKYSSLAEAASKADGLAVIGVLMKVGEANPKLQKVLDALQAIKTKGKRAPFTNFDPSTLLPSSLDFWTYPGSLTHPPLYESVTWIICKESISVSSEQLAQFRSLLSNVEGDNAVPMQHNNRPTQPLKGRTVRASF

[3] = molecular target: T3, CAXIII (Homo sapiens, UniProt Q8N1Q1); assay: Thermal shift assay (TSA), recombinant CAXIII; type: binding; conditions: 37 °C, pH 7.0, observed (not intrinsic)
T3 construct: made in house; host or cells: E. coli
T3 sequence (Q8N1Q1 whole entry): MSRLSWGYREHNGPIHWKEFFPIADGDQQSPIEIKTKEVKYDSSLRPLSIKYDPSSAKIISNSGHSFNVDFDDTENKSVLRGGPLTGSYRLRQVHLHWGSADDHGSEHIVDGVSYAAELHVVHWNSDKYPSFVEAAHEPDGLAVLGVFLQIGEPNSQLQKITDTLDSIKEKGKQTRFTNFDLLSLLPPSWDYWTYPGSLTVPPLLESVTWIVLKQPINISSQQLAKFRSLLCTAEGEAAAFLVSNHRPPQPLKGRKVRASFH

[4] = molecular target: T4, CAVII (Homo sapiens, UniProt P43166); assay: Thermal shift assay (TSA), recombinant CAVII; type: binding; conditions: 37 °C, pH 7.0, observed (not intrinsic)
T4 construct: made in house; host or cells: E. coli
T4 sequence (P43166 whole entry): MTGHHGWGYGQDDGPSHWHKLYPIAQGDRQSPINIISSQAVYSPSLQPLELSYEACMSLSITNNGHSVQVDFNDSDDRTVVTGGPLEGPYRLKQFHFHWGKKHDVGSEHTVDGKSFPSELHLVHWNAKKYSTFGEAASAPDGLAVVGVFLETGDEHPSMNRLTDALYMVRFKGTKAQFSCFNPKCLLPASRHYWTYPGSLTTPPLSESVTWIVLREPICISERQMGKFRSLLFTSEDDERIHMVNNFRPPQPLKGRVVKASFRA

[5] = molecular target: T5, CAVI (Homo sapiens, UniProt P23280); assay: Thermal shift assay (TSA), recombinant CAVI; type: binding; conditions: 37 °C, pH 7.0, observed (not intrinsic)
T5 construct: made in house; host or cells: E. coli
T5 sequence (P23280 18-308): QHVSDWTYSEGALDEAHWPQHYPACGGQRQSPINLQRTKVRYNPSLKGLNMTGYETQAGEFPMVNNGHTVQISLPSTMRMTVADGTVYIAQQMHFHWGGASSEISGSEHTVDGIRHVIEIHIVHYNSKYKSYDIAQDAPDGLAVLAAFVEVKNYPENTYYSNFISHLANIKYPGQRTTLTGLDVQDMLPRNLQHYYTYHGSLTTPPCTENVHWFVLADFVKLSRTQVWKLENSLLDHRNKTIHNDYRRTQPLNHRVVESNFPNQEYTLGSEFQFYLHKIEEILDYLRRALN
Method: (§3) The binding affinities of all fluorescein-containing compounds were determined for all 12 catalytically active CA isozymes by the thermal shift assay (TSA). […] However, the SFA technique cannot determine the affinities lower than the enzyme concentration used in the assay. […] In addition, we used isothermal titration calorimetry (ITC), the standard assay to determine affinity and enthalpy of protein–ligand binding. […] Therefore, ITC was used only to determine the enthalpy of interaction and confirm the ordering of compound affinities.
(§4) All twelve catalytically active human CA isozymes were prepared recombinantly as previously described. Isozymes CAIX, CAXII, and CAXIV were the catalytic domains of the proteins[14],[38]. All isozymes were expressed in E. coli except CAIX that has been prepared in mammalian cells. The proteins were chromatographically purified on ion-exchange or benzene sulfonamide containing affinity columns. Protein MW was confirmed by mass spectrometry with 1 Da precision as predicted from gene sequence.
(§5) Compound affinities for the twelve catalytically active CA isozymes were determined by the thermal shift assay as previously described[30],[39]. Protein solutions containing 1,8-anilinonaphthalenesulfonate fluorescent probe were heated from 25 to 100 °C at a rate of one degree per minute while following the fluorescence of the probe. The temperature scanning curves provided the melting temperature Tm of the protein. The Tm has a distinct dependence on the concentration of a compound. Stronger binders shift the Tm to a greater extent than the weak binders. The Tm dependencies on compound concentration were fit to obtain the affinity Kd[40].

[6] = molecular target: T6, CAIV (Homo sapiens, UniProt P22748); assay: Thermal shift assay (TSA), recombinant CAIV; type: binding; conditions: 37 °C, pH 7.0, observed (not intrinsic)
T6 construct: made in house; host or cells: E. coli
T6 sequence (P22748 19-312): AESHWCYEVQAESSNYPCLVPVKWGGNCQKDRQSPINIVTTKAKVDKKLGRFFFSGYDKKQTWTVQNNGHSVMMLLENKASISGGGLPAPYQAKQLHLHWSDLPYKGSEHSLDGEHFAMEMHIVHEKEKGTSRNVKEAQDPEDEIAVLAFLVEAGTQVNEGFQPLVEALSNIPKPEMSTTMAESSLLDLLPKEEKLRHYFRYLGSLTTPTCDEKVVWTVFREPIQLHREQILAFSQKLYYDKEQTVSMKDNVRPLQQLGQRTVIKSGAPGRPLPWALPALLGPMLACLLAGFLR

[7] = molecular target: T7, catalytic domain of recombinant human CAIX (Homo sapiens, UniProt Q16790); assay: Thermal shift assay (TSA), recombinant CAIX catalytic domain; type: binding; conditions: for Kd: TSA, 37 °C, pH 7.0, observed (not intrinsic), read-out: Kd CAIX
T7 construct: Isozymes CAIX, CAXII, and CAXIV were the catalytic domains of the proteins; made in house; host or cells: mammalian cells

[8] = molecular target: T8, CAII (Homo sapiens, UniProt P00918); assay: Thermal shift assay (TSA), recombinant CAII; type: binding; conditions: 37 °C, pH 7.0, observed (not intrinsic)
T8 construct: made in house; host or cells: E. coli
Method: as §3, §4, §5

[9] = molecular target: T9, CAVA (Homo sapiens, UniProt P35218); assay: Thermal shift assay (TSA), recombinant CAVA; type: binding; conditions: 37 °C, pH 7.0, observed (not intrinsic)
T9 construct: made in house; host or cells: E. coli
T9 sequence (P35218 39-305): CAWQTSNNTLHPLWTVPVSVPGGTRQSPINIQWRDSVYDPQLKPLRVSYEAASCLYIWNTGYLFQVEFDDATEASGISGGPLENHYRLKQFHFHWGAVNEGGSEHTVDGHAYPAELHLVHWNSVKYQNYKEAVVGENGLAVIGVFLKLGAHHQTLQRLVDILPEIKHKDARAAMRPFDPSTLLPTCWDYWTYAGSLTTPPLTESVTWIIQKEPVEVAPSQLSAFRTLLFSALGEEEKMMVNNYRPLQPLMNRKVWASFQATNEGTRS
Method: as §3, §4, §5

[10] = molecular target: T10, CAXII (Homo sapiens, UniProt O43570); assay: Thermal shift assay (TSA), recombinant CAXII; type: binding; conditions: 37 °C, pH 7.0, observed (not intrinsic)
T10 construct: Isozymes CAIX, CAXII, and CAXIV were the catalytic domains of the proteins; made in house; host or cells: E. coli
T10 sequence (O43570 30-289 limits assumed): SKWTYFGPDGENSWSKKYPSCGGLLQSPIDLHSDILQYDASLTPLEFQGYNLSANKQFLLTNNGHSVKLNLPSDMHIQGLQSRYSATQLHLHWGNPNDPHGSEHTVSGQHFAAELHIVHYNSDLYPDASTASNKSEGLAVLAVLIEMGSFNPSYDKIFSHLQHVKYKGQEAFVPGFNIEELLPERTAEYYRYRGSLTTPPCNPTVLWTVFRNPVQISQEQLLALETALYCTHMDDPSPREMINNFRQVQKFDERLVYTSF
Method: as §3, §4, §5

[11] = molecular target: T11, CAIII (Homo sapiens, UniProt P07451); assay: Thermal shift assay (TSA), recombinant CAIII; type: binding; conditions: 37 °C, pH 7.0, observed (not intrinsic)
T11 construct: made in house; host or cells: E. coli
T11 sequence (P07451 whole entry): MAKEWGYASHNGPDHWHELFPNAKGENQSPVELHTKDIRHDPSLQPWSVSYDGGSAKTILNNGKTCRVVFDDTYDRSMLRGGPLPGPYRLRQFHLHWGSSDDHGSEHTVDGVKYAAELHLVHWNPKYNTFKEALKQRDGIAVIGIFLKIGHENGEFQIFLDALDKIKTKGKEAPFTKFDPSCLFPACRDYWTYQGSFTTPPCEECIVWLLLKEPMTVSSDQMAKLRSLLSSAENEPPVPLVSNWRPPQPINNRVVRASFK
Method: as §3, §4, §5

[12] = molecular target: T12, CAVB (Homo sapiens, UniProt Q9Y2D0); assay: Thermal shift assay (TSA), recombinant CAVB; type: binding; conditions: 37 °C, pH 7.0, observed (not intrinsic)
T12 construct: made in house; host or cells: E. coli
T12 sequence (Q9Y2D0 34-317): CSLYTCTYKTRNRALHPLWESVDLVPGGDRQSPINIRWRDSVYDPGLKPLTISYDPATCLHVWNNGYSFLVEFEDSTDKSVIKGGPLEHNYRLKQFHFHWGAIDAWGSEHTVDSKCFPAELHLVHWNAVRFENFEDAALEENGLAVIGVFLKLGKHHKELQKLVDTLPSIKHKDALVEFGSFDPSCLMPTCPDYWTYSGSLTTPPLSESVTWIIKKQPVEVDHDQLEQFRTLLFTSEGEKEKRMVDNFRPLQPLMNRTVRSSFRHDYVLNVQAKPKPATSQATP

[13] = molecular target: T13, CAXIV (Homo sapiens, UniProt Q9ULX7); assay: Thermal shift assay (TSA), recombinant CAXIV; type: binding; conditions: 37 °C, pH 7.0, observed (not intrinsic)
T13 construct: Isozymes CAIX, CAXII, and CAXIV were the catalytic domains of the proteins; made in house; host or cells: E. coli
T13 sequence (Q9ULX7 20-278 limits assumed): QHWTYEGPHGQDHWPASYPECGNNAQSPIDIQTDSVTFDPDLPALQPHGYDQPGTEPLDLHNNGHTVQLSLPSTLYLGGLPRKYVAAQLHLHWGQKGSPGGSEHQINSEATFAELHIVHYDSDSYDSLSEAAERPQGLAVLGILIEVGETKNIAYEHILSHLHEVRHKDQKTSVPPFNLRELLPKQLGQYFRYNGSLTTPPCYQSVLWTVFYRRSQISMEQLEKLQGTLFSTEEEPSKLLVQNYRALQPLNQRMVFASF

[14] = tested on: HeLa CAIX-KO and normoxia-grown WT HeLa cells; assay: Fluorescein-labeled compound dosing to CAIX-KO and normoxia-grown HeLa cells (non-specific binding); type: cell-based, human; conditions: micromolar concentration range, Fig. 9B, 9C
Method: as §1, §2
This equation was fit to the dosing curves of several fluorescently-labeled ligands to both the cells grown in hypoxia and in normoxia, both to the WT and CRISPR-Cas9 CAIX knockout cells. The cells bound both the GZ19-32 and GZ20-40 ligands that differed only in the length of the linker and both contained the same head-group. […] Furthermore, the ligands that had their sulfonamide amino group substituted with the methyl completely abandoned their capability of binding CAIX in this concentration region. The binding was also abolished for the CAIX-KO HeLa cells.

[15] = molecular target: CAIX expressed on live A549 cells (Homo sapiens, UniProt Q16790); assay: Competition of unlabeled compound with 10 nM GZ19-32 on hypoxic A549 cells (competitive binding model); conditions: ratio of KdA

Row | binding to hypoxia-grown HeLa cells in the nM concentration region [1] | Kd [2] [nM] | Kd [3] [nM] | melting point [°C] | Kd [4] [nM] | Kd [5] [nM] | Kd [6] [nM] | Kd [7] [nM] | binding to CAIX by TSA (in words) ([7]; recombinant CAIX) | Kd [8] [nM] | Kd [9] [nM] | Kd [10] [nM] | Kd [11] [nM] | Kd [12] [nM] | Kd [13] [nM] | weaker binding to CAIX in A549 than HeLa cells [15] [times] | Compound | non-specific binding to cells [14]
1 | did not bind | 0.005 | 1.7 | 175 to 176 | 2 | 140 | 140 | 1.7 | medium affinity (nM range) | 1.7 | 29 | 40 | 2500 | 20 | 25 | – | NS(=O)(=O)c1c(F)c(F)c(S(=O)(=O)CCC(=O)Nc2ccc3c(c2)C(=O)OC32c3ccc(O)cc3Oc3cc(O)ccc32)c(F)c1F [GZ19-31, N-(3',6'-dihydroxy-3-oxo-3H-spiro[isobenzofuran-1,9'-xanthen]-5-yl)-3-((2,3,5,6-tetrafluoro-4-sulfamoylphenyl)sulfonyl)propanamide] | bound cells in the micromolar concentration range
2 | – | 500 | 1 | 180 to 181 | 7 | 250 | 500 | 0.01 | – | 200 | 1000 | 7 | 6700 | 33 | 2.5 | – | NS(=O)(=O)c1c(F)c(F)c(S(=O)(=O)CCC(=O)NCCCC(=O)Nc2ccc3c(c2)C(=O)OC32c3ccc(O)cc3Oc3cc(O)ccc32)c(NC2CCCCCCC2)c1F [GZ20-40, 4-(3-((2-(cyclooctylamino)-3,5,6-trifluoro-4-sulfamoylphenyl)sulfonyl)propanamido)-N-(3',6'-dihydroxy-3-oxo-3H-spiro[isobenzofuran-1,9'-xanthen]-5-yl)butanamide] | –
3 | – | – | – | – | – | 10000 | – | – | – | – | 6000 | – | > 200000 | – | – | 6 | NS(=O)(=O)c1ccc(NC(=O)Nc2ccc(F)cc2)cc1 [SLC-0111, 4-(3-(4-fluorophenyl)ureido)benzenesulfonamide, reference compound] | –
4 | – | > 100000 | > 100000 | 181 to 182 | > 100000 | > 100000 | > 100000 | > 100000 | – | > 100000 | > 100000 | > 100000 | > 100000 | > 100000 | > 100000 | – | CS(=O)(=O)c1c(F)c(F)c(SCCC(=O)Nc2ccc3c(c2)C(=O)OC32c3ccc(O)cc3Oc3cc(O)ccc32)c(F)c1F [GZ19-33, N-(3',6'-dihydroxy-3-oxo-3H-spiro[isobenzofuran-1,9'-xanthen]-5-yl)-3-((2,3,5,6-tetrafluoro-4-(methylsulfonyl)phenyl)thio)propanamide] | bound cells in the micromolar concentration range
